Test results from patent US20230131339A1, “EPI-X4 BASED PEPTIDES AND DERIVATIVES THEREOF” (Universitaet Ulm, priority 2020, published 2023).

Columns and labels:
AML cells = assay: Migration of AML cells along a CXCL12 gradient; type: cell-based
Excerpt: (§1) Experimental data support the efficiency of the claimed peptide derivatives against the diseases mentioned above. At the example of JM #21 (SEQ ID NO.: 23) it could be shown that the peptides counteract growth and migration in vitro and in vivo of Acute Myeloid Leukemia (AML) cells as well as primary patient material and Waldenström's Macroglobulinemia (WM) cells harboring different WHIM-like CXCR4 mutations. This was accompanied by intrinsic changes suppressing oncogenic MAP kinase signaling of AML and WM cells.

[1] = tested on: CXCL12 induced Ca2+-signalling; assay: Ca++ signaling in BCR-ABL-transformed murine bone marrow cells; type: cell-based; conditions: 1 μM
[2] = Functional stability assay in human plasma; conditions: human plasma, 2 hours
Summary of the method: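 EPI-X4 derivatives at 20 μM final in pooled human plasma or whole blood (EDTA), incubated at 37 °C with shaking for 2 or 8 h. Residual activity was measured by 12G5-APC antibody competition on CXCR4 and compared with a non-incubated t=0 sample. Blood samples were centrifuged to remove cells before the competition assay.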

[3] = tested on: CXCL12-induced AKT signaling; assay: ERK/AKT signaling assay in SupT1 cells: AKT phosphorylation; type: cell-based
Summary of the method: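 SupT1 cells in 1% FCS medium preincubated 15 min at 37 °C with compound, then stimulated 2 min with CXCL12 (100 ng/ml final). PFA-fixed, methanol-permeabilized cells stained for phospho-ERK1/2 (Tyr204/Tyr187) or phospho-AKT (Ser473) and read by flow cytometry; two or three independent experiments in triplicate.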

WM cells = assay: Migration of WM cells along a CXCL12 gradient; type: cell-based; conditions: with or without S338X mutation
Excerpt: as §1

CXCR4 = molecular target: T1, CXCR4 (Homo sapiens, UniProt P61073); assay: Antibody competition assay (12G5-assay) on SupT1 cells; type: binding
T1 construct: endogenous in cells; host or cells: SupT1 cells
Method: Second, the activity was tested by an antibody competition assay (FIG. 2). Values determined by the competition assay represent the potency of a compound to compete with an antibody that specifically binds to the binding pocket (ECL2) of CXCR4. […] To the right of the diagrams, an assignment of the curves to the tested peptides is explained. […] Three independent experiments were carried out for each peptide in each assay. The error bars refer to the standard deviation.
Antibody competition assay. Competition of compounds with antibody binding was performed on SupT1 cells. For that cells were washed in PBS containing 1% FCS and 50,000 cells were then seeded per well in a 96 V-well plate. Buffer was removed and plates were precooled at 4° C. Compounds were diluted in PBS and antibody (clone 12G5, APC labelled) was diluted in PBS containing 1% FCS. The antibody was used at a concentration closed to its determined Kd. 15 μl compounds were then added to the cells and 15 μl antibody immediately afterwards. Plates were incubated at 4° C. in the dark for 2 hours. Afterwards cells were washed twice with PBS containing 1% FCS and fixed with 2% PFA. Antibody binding was analyzed by flow cytometry (FACS CytoFLEX; Beckman Coulter®).

CD34+ normal cells = assay: Engraftment of CD34+ normal cells; conditions: in vivo
Excerpt: as §1

T1 sequence (P61073 whole entry): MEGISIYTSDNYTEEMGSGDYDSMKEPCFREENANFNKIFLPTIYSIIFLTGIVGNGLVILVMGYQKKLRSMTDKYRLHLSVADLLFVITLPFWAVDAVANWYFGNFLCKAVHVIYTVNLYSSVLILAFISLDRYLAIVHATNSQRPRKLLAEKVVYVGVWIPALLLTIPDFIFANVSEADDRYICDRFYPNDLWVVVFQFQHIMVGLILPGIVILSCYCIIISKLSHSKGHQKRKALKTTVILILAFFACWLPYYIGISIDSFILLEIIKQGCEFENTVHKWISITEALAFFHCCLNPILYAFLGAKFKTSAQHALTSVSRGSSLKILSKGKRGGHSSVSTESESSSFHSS

## CC[C@H](C)[C@H](N)C(=O)N[C@@H](CC(C)C)C(=O)N[C@@H](CCCNC(=N)N)C(=O)N[C@@H](Cc1c[nH]c2ccccc12)C(=O)N[C@@H](CO)C(=O)N[C@@H](CCCNC(=N)N)C(=O)N[C@@H](CCCCN)C(=O)N[C@@H](CC(C)C)C(=O)N1CCC[C@H]1C(=O)N[C@@H](CS)C(=O)N[C@H](C(=O)N[C@@H](CO)C(=O)O)C(C)C [JM #21]
AML cells
  migration of AML cells along a CXCL12 gradient: inhibited migration of AML cells along a CXCL12 gradient
[1]
  reduction of CXCL12 induced calcium-signaling: much stronger than the reduction seen for WSC02
[2]
  remaining (relative) activity after 2 hours of plasma incubation: completely inactive
[3]; 1 μM
  reduction of CXCL12-induced AKT signaling: about 50%
[3]; 10 μM
  reduction of CXCL12-induced AKT signaling: about 85%
[3]; AKT and ERK
  blocking of CXCL12 induced signaling (in words): blocked signaling more effectively than WSC02
[3]; compared to WSC02
  fold effectiveness in blocking AKT signaling relative to WSC02: about 10 fold
WM cells
  migration of WM cells along a CXCL12 gradient: impaired migration of WM cells with or without S338X mutation along a CXCL12 gradient
CXCR4
  antibody competition / binding to CXCR4 (in words): more effective antibody competition
CD34+ normal cells
  engraftment potential of CD34+ normal cells: no inhibiting effect on the engraftment potential of CD34+ normal cells
